Assay results published in ChEMBL document CHEMBL3779874, “Pyridones as Highly Selective, Noncovalent Inhibitors of T790M Double Mutants of EGFR” (ACS Med Chem Lett, 2016).
Values after ≈ are worked out from the molar mass of the structure shown. Active and inactive are the calls of the source. No cut-off for these calls is given here.

Experiments:
[1] = molecular target: Epidermal growth factor receptor (Homo sapiens, UniProt P00533); assay: Inhibition of human N-terminal GST-tagged EGFR catalytic domain (669 to 1210 residues) expressed in baculovirus expression system using Fl-EEPLYWSFPAKKK-CONH2 peptide substrate preincubated for 30 mins followed by substrate addition measured after 30 mins by Caliper Mobility Shift Assay; conditions: read-out: Ki(app)
Epidermal growth factor receptor (Homo sapiens, UniProt P00533), sequence (P00533 whole entry, the tested form may be a part): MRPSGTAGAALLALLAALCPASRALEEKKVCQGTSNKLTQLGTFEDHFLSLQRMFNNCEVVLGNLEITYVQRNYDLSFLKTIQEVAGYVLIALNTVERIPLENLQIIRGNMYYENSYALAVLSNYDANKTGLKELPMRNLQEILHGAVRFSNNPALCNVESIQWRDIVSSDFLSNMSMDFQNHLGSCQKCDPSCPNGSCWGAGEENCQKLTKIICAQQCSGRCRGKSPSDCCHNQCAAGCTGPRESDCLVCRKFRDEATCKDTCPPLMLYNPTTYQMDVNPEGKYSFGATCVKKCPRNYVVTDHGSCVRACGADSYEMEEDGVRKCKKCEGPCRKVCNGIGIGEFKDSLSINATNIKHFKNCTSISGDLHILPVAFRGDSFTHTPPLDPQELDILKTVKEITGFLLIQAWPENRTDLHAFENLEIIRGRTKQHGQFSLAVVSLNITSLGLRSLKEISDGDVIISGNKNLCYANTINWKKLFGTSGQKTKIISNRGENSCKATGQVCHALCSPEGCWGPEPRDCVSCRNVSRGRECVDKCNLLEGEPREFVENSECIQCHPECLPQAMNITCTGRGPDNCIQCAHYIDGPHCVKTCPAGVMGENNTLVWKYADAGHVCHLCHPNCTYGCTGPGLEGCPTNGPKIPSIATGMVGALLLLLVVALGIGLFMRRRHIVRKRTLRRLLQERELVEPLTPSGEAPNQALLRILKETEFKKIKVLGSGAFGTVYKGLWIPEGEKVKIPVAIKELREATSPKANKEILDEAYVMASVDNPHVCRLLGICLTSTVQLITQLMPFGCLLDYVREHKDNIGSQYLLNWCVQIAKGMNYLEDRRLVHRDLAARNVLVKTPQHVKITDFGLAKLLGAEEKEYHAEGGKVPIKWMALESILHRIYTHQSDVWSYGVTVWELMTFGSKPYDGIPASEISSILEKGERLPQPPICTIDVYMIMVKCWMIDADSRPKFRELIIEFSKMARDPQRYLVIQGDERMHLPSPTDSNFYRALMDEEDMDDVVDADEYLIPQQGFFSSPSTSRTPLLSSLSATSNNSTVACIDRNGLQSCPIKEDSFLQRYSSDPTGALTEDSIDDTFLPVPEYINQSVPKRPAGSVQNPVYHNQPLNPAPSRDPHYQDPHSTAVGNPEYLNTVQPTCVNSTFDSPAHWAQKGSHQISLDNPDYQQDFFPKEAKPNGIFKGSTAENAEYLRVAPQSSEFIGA

[2] = molecular target: T1, Epidermal growth factor receptor (Homo sapiens, UniProt P00533, L858R/T790M); assay: Inhibition of human EGFR catalytic domain (668 to 1210 residues) T790M/L858R double mutant using Fl-EEPLYWSFPAKKK-CONH2 peptide substrate preincubated for 30 mins followed by substrate addition measured after 30 mins by Caliper Mobility Shift Assay; assay type: protein assay; conditions: read-out: Ki(app)
Homo sapiens [3] = organism: Homo sapiens; assay: Selectivity ratio of Ki(app) for human N-terminal GST-tagged EGFR catalytic domain (669 to 1210 residues) expressed in baculovirus expression system to Ki(app) for human EGFR catalytic domain (668 to 1210 residues) T790M/L858R double mutant
Homo sapiens [4] = organism: Homo sapiens; assay: Selectivity ratio of Ki(app) for JAK2 (unknown origin) to Ki(app) for human EGFR catalytic domain (668 to 1210 residues) T790M/L858R double mutant
Homo sapiens [5] = organism: Homo sapiens; assay: Selectivity ratio of Ki(app) for JAK1 (unknown origin) to Ki(app) for human EGFR catalytic domain (668 to 1210 residues) T790M/L858R double mutant
[6] = molecular target: T2, Tyrosine-protein kinase JAK2 (Homo sapiens, UniProt O60674); assay: Inhibition of JAK2 (unknown origin); conditions: read-out: Ki(app)
T2 sequence (O60674 whole entry): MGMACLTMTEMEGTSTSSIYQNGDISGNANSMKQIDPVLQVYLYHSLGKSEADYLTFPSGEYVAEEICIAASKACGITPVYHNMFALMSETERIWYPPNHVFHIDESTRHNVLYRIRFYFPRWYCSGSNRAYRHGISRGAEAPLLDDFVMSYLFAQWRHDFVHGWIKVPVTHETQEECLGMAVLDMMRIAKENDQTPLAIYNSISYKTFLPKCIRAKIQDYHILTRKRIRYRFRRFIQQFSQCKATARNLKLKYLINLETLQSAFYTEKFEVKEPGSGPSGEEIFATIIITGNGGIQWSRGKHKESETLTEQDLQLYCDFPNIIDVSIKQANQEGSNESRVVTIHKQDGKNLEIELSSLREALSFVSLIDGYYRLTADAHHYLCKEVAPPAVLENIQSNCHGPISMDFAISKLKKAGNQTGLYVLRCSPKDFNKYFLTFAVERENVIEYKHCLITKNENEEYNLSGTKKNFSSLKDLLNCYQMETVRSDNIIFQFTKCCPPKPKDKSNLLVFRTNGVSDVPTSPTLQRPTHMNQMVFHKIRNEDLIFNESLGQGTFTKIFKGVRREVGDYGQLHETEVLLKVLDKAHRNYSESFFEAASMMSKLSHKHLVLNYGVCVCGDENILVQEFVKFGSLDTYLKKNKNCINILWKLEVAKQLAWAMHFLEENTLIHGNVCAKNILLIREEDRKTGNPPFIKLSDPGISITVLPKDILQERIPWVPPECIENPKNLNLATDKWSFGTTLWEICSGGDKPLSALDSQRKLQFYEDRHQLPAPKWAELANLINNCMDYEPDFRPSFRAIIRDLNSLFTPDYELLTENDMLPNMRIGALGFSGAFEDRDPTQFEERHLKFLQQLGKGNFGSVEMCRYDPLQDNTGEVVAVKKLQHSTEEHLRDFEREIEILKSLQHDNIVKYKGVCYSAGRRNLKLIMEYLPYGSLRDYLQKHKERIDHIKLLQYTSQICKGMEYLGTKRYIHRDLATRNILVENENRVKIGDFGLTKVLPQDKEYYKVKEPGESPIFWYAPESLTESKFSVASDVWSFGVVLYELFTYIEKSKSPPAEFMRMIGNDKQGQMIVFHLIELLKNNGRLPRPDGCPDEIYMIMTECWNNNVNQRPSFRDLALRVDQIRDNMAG

[7] = molecular target: T2, Tyrosine-protein kinase JAK2; assay: Inhibition of JAK2 (unknown origin) at 1 uM
[8] = Lipophilicity, log D of compound at pH 7.4; assay type: physicochemical; conditions: buffer
[9] = Kinetic solubility of compound in pH7.4 DMSO/phosphate buffered saline after 24 hrs by chemiluminescent nitrogen detection method; assay type: physicochemical; conditions: pH 7.4, read-out: Kinetic_solubility
Homo sapiens [10] = organism: Homo sapiens; assay: Selectivity ratio of Ki(app) for JAK1 (unknown origin) to Ki(app) for JAK2 (unknown origin)
[11] = molecular target: Tyrosine-protein kinase JAK1 (Homo sapiens, UniProt P23458); assay: Inhibition of JAK1 (unknown origin); conditions: read-out: Ki(app)
Tyrosine-protein kinase JAK1, sequence (P23458 whole entry): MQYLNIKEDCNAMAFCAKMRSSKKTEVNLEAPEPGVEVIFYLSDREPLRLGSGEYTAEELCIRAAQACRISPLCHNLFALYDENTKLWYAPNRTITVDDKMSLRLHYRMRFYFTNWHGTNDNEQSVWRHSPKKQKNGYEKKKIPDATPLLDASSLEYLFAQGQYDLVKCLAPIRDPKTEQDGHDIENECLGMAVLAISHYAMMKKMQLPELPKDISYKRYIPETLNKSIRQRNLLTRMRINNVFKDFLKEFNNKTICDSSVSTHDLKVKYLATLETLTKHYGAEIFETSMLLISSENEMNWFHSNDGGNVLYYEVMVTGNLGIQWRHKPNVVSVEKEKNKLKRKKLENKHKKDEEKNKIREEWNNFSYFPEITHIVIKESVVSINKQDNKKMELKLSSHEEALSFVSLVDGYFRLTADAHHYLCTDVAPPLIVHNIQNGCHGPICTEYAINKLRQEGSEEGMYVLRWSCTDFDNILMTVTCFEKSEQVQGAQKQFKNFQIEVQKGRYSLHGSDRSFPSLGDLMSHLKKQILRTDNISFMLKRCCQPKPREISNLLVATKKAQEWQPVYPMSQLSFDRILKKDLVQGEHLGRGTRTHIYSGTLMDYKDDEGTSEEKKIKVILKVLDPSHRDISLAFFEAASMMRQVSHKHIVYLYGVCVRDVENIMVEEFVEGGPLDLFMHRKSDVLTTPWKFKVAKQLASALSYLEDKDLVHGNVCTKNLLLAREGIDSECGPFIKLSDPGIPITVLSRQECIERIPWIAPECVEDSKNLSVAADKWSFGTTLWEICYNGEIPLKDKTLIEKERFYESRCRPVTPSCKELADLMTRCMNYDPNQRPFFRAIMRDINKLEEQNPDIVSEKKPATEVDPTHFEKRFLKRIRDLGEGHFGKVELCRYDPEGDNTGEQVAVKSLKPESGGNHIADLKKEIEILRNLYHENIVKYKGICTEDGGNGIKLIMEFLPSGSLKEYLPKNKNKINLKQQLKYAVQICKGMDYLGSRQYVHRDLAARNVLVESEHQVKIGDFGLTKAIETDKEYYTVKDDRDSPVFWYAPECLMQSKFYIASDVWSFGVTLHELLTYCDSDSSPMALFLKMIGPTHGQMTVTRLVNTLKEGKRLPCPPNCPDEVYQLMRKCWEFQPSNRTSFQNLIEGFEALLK

[12] = molecular target: T1, Epidermal growth factor receptor; assay: Inhibition of EGFR T790M/L858R double mutant phosphorylation in human H1975 cells preincubated for 1 hr followed by EGF stimulation for 8 mins by electrochemiluminescent immunoassay; assay type: cell-based
H1975 = assay: Ratio of EC50 for wild type EGFR phosphorylation in human H292 cells to EC50 for EGFR T790M/L858R double mutant phosphorylation in human H1975 cells; assay type: cell-based

Row | Structure (SMILES) | Ki [1] | Ki [2] | Ratio Ki(app) (Homo sapiens [3]) | further results
1 | CN1CCN(c2ccc(NC(=O)c3c(NCCc4ccc(Cl)cc4)cc[nH]c3=O)cc2)CC1 | 37 nM | 262 nM | < 1 | 
2 | O=C(Nc1ccccc1)c1c(NCCc2cccc(Cl)c2)cc[nH]c1=O | 1210 nM | 330 nM | 2 | 
3 | CN1CCN(c2ccc(NC(=O)c3c(Nc4ccccn4)cc[nH]c3=O)cc2)CC1 | > 2540 nM | 108 nM | > 24 | 
4 | CN(C)c1ccc(NC(=O)c2c(NCCc3cccc(Cl)c3)cc[nH]c2=O)cc1 | 757 nM | 290 nM | 1 | 
5 | CN1CCN(c2ccc(NC(=O)c3c(Nc4ccccc4Cl)cc[nH]c3=O)cc2)CC1 | 1480 nM | 82 nM | 18 | 
6 | COc1ccccc1Nc1cc[nH]c(=O)c1-c1nc2c(C(C)C)ccc(C)c2[nH]1 |  | 88 nM | 27 | Ratio Ki(app) (Homo sapiens [4]): 0.3; Ratio Ki(app) (Homo sapiens [5]): 6
7 | CN1CCN(c2ccc(NC(=O)c3c(N)cc[nH]c3=O)cc2)CC1 | > 2540 nM | 346 nM | > 7 | 
8 | COc1ccccc1Nc1cc[nH]c(=O)c1C(=O)Nc1ccc(N2CCN(C)CC2)cc1 | 1090 nM | 19 nM | 58 | Ki [6]: 9 nM; inhibition [7]: Active; logD [8]: 3.5; solubility kinetic at 24 h [9]: 4 µM (≈ 1.73 µg/mL); Ratio Ki(app) (Homo sapiens [4]): 0.5; Ratio Ki(app) (Homo sapiens [5]): 9; Ratio Ki(app) (Homo sapiens [10]): 10; Ki [11]: 172 nM; EC50 [12]: 1090 nM; Ratio EC50 (H1975): 5
9 | CN1CCN(c2ccc(NC(=O)c3c(NCc4ccccc4)cc[nH]c3=O)cc2)CC1 | 349 nM | 350 nM | 1 | 
10 | COc1ccccc1Nc1cc[nH]c(=O)c1C(N)=O | > 2500 nM | > 688 nM | > 3.6 | 
11 | CN1CCN(c2ccc(NC(=O)c3c(Nc4ccnc(N)n4)cc[nH]c3=O)cc2)CC1 | 850 nM | 4 nM | 213 | inhibition [7]: Active; Ratio Ki(app) (Homo sapiens [4]): 2; Ratio Ki(app) (Homo sapiens [5]): 3
12 | COc1ccccc1N(C)c1cc[nH]c(=O)c1C(=O)Nc1ccc(N2CCN(C)CC2)cc1 | > 2540 nM | > 2060 nM | 1 | 
13 | Cc1ccccc1Nc1cc[nH]c(=O)c1C(=O)Nc1ccc(N2CCN(C)CC2)cc1 | 2340 nM | 61 nM | 38 | 
14 | CN1CCN(c2ccc(NC(=O)c3c(Nc4ccccc4)cc[nH]c3=O)cc2)CC1 | > 2540 nM | 144 nM | > 18 | 
15 | COc1ccccc1Nc1cc[nH]c(=O)c1C(=O)Nc1ccc(N2CCCN(C)CC2)cc1 | 705 nM | 12 nM | 57 | 
16 | COc1ccccc1Nc1cc[nH]c(=O)c1C(=O)Nc1ccc(C2CCN(C)CC2)cc1 | 634 nM | 15 nM | 29 | logD [8]: 2.7; solubility kinetic at 24 h [9]: 61 µM (≈ 26.4 µg/mL); EC50 [12]: 433 nM; Ratio EC50 (H1975): > 23

Row | Structure (SMILES) | Ki [1] | Ki [2] | Ratio Ki(app) (Homo sapiens [3]) | further results
17 | CN1CCN(c2ccc(NC(=O)c3c(NCCc4ccccc4)cc[nH]c3=O)cc2)CC1 | 49 nM | 117 nM | < 1 | 
18 | CN1CCN(c2ccc(NC(=O)c3c(Nc4ccncn4)cc[nH]c3=O)cc2)CC1 | > 2540 nM | 95 nM | > 27 | 
19 | CN1CCN(c2ccc(NC(=O)c3c(Nc4ccc(Cl)cc4)cc[nH]c3=O)cc2)CC1 | > 2540 nM | 629 nM | > 4 | 
20 | CN1CCN(c2ccc(NC(=O)c3c(Nc4ccncc4N)cc[nH]c3=O)cc2)CC1 | > 1230 nM | 145 nM | > 8 | 
21 | COc1ccccc1Nc1cc[nH]c(=O)c1C(=O)Nc1ccc(N2CCN(C)CC2)c(C)c1 |  | 26 nM | 16 | Ratio Ki(app) (Homo sapiens [4]): 0.9; Ratio Ki(app) (Homo sapiens [5]): 42
22 | COc1ccccc1Nc1cc[nH]c(=O)c1C(=O)Nc1ccc(N2CCS(=O)(=O)CC2)cc1 | > 1300 nM | 37 nM | > 34 | 
23 | COc1ccccc1Nc1cc[nH]c(=O)c1C(=O)Nc1ccc(N2CCC(C)CC2)cc1 | > 2500 nM | 625 nM | > 4.1 | 
24 | COc1ccccc1Nc1cc[nH]c(=O)c1C(=O)Nc1ccc(CN2CCN(C)CC2)cc1 | 1200 nM | 51 nM | 22 | 
25 | COc1ccccc1Nc1cc[nH]c(=O)c1C(=O)Nc1ccc(N2CCN(C)CC2)nc1 | > 2500 nM | 78 nM | > 33 | logD [8]: 2.6; solubility kinetic at 24 h [9]: 65 µM (≈ 28.2 µg/mL)
26 | CN1CCN(c2ccc(NC(=O)c3c(NCCc4cccc(Cl)c4)cc[nH]c3=O)cc2)CC1 | 43 nM | 66 nM | 1 | 
27 | COc1ccccc1Nc1cc[nH]c(=O)c1-c1nc2c(C(C)C)cccc2[nH]1 | 2400 nM | 58 nM | 42 | Ratio Ki(app) (Homo sapiens [4]): 0.2; Ratio Ki(app) (Homo sapiens [5]): 2
28 | CN1CCN(c2ccc(NC(=O)c3c(Nc4cccc(Cl)c4)cc[nH]c3=O)cc2)CC1 | 2520 nM | 155 nM | 16 | 
29 | CN1CCN(c2ccc(NC(=O)c3c(NC[C@@H](O)c4cccc(Cl)c4)cc[nH]c3=O)cc2)CC1 | 18 nM | 65 nM | < 1 | solubility kinetic at 24 h [9]: 11 µM (≈ 5.3 µg/mL); EC50 [12]: 412 nM
30 | CCc1cc(NC(=O)c2c(Nc3ccccc3OC)cc[nH]c2=O)ccc1N1CCN(C)CC1 |  | 31 nM | > 80 | Ratio Ki(app) (Homo sapiens [4]): 4; Ratio Ki(app) (Homo sapiens [5]): 104
31 | COc1ccccc1Nc1cc[nH]c(=O)c1C(=O)Nc1ccc(N2CCN(C)CC2)cn1 | > 2500 nM | > 2060 nM | 1 | 
